The data set is described as follows: MTT cell viability assay in βTC3 cells. In kind it is cell-based, mouse. The following applies: mouse; 0.05 mM DHK, five days; read-out: decrease in RGR (βTC3 viability). As for the experimental part: 1A: Glutamate induces a dose-dependent beta-cell death. 24 hrs after plating, αTC1 and βTC3 cells were incubated for five days with the indicated glutamate concentrations and viability was assessed by MTT assay. Data are presented as % Relative Growth Rate (RGR) versus controls (100%) and represent the mean±SE of at least 7 independent experiments (n=6). * p<0.01 vs ctrl; ° p<0.01 vs Glu 5 mM in αTC1.
1C: β-cell death is prevented by pharmacological inhibition of ionotropic channels. 24 hrs after plating, αTC1 and βTC3 cells were incubated for five days with 0.025 mM CNQX (left panel) or 0.1 mM APV (right panel), in the presence or the absence of 5 mM glutamate and viability was assessed by MTT assay. Data are presented as % RGR versus control samples (100%) and represent the mean±SE of three independent experiments (n=5). * p<0.05
6B. MTT assay. 24 hrs after plating, αTC1 and βTC3 cells were incubated for five days with different DHK concentrations and viability was assessed by MTT assay. Data are presented as % RGR versus control (100%) and represent the mean±SE of three independent experiments (n=8). * (DHK versus control) p<0.05
8B: MTT assay: 24 hrs after plating, βTC3 cells were incubated for five days with the indicated ceftriaxone concentrations in the presence or absence of 5 mM glutamate and viability was assayed by MTT assay. Data are presented as % RGR versus control (100%) and represent the mean±SE of three independent experiments (n=8). *(ceftriaxone versus relative control) p<0.05.
βTC3 and αTC1 cells were derived from progeny of transgenic mice expressing SV40 large T-antigen under control of the rat insulin II 5′-flanking region or rat preproglucagon 5′-flanking region, respectively (Powers et al, 1990) and were originally provided by Douglas Hanahan (Department of Biochemistry and Biophysics, University of California, San Francisco, Calif.). βTC3 were grown in RPMI 1640 11 mM glucose, supplemented with 10% heat inactivated fetal bovine serum, 2 mM L-glutamine, and 100 IU/ml streptomycin/penicillin, as previously described (Galbiati et al, 2002). Experiments were performed between the 27 and 33 passage of cell culture.
3-(4,5-Dimethylthiazol-2-yl)-2,5-diphenyltetrazolium bromide (MTT) assay. βTC3 cells were seeded at a density of 8×10^3 cells/well onto 96-well culture plates. Cells were allowed to attach and grow for 24 h in standard medium. Then medium was replaced with fresh medium containing glutamate, DHK (Dihydrokainic Acid, Sigma Aldrich), glutamate receptor inhibitors APV and CNQX (Sigma Aldrich) or ceftriaxone (Sigma Aldrich) at the indicated concentrations. […] Coloured formazan product was determined spectrophotometrically at 540 nm. 20 islets/tube were used to assess viability in human isolated islets. Data are expressed as % Relative Growth Rate (% RGR) versus control samples.

Molecules are shown by their SMILES.

Regarding `CC(C)[C@H]1CN[C@H](C(=O)O)[C@H]1CC(=O)O` [DHK, Dihydrokainic Acid], the cytotoxicity at 5 days, 0.05 mM came out at 6.17%.

Source of the values: US8722343B2, “Methods and compositions for the diagnosis and treatment of diabetes” (priority 2008, dated 2014).
